Experimental data reported in US20030100477A1, “Medicinal compositions for suppressing beta-amyloid production” (priority 2002, published 2003).

Key:
[1] = test system: Aβ1-40 production; experiment: Aβ1-40 production, sandwich ELISA of culture supernatant of APP695 adenovirus-infected hippocampus primary culture nerve cells
Protocol: The fetus was sterilized with ethanol for disinfection in a clean bench, the total brain was extracted and recovered in a dish containing a serum-free medium (SUMILON, Sumitomo Bakelite), and the hippocampus was extracted using a precision pincette under a stereoscopic microscope. The hippocampus was transferred into a 50 ml tube, tissues were precipitated by standing to discard the supernatant by aspirating and a cell dispersing solution (PBS containing 1% papain, 150 U/ml DNase I, 0.02% L-cysteine, 0.02% BSA and 0.5% glucose) was added thereto, and the mixture was incubated at 37° C. for 15 minutes and then centrifuged (1,000 rpm, 4° C., 5 min). The supernatant was removed by aspiration, 10 ml of the serum-free medium was added to the sediment, pipette treatment was carried out several times, and then cell masses were removed using a filter to obtain a cell suspension. The number of cells was counted using trypan blue, and 1.5×10^5 of the cells were inoculated into a poly-L-lysine-coated 48 well culture plate. In order to effect sufficient differentiation, they were cultured at 37° C. for 10 days in a CO2 incubator and then used in the test.
Infection with adenovirus was carried out on the 10th day of the culturing. A virus suspension of 1.5×10^8 particles was suitably diluted and added to a medium to an MOI (multiplicity of infection) value of 1,000 based on 1.5×10^5 cells. A sample was recovered on the 4th day of the infection.
Culture supernatants recovered 24 hours after the addition of compounds to be tested were used as the samples for Aβ production measurement. Amount of Aβ in each supernatant was determined by sandwich ELISA. Firstly, an anti-Aβ monoclonal antibody 6E10 (Wako) diluted to 10 μg/ml with 100 mM phosphate buffer was dispensed in 50 μl/well portions into a plate for ELISA (Maxisorp, Nunc) and allowed to stand overnight at 4° C. to effect adhesion of the 6E10 antibody to the plate. The antibody was recovered on the next day, and 200 μl of Block Ace was added to each well to carry out blocking at 4° C. overnight or more. […] The Aβ for calibration curve preparation was prepared in the following manner. […] A 10 μl portion of the stock solution was transferred into a tube, HFIP was evaporated using a vacuum concentrator and then the residue was again dissolved in 10 μl of DMSO to an Aβ concentration of 1 mg/ml. Serial dilutions of the solution for Aβ calibration curve measurement were prepared within the range of from 0.2 to 10 ng/ml. The plate after the reaction with a sample or Aβ for calibration curve preparation was washed 4 times with the plate washer and then allowed to react with primary antibodies. Polyclonal antibodies R163 (Aβ1-40 specific antibody) and R165 Aβ1-42 specific antibody), which specifically recognize C-terminus of Aβ, were used as the primary antibodies. […] Each antibody was diluted 1,000 times with TBS-T containing 25% Block Ace, dispensed in 60 μl/well portions into the plate and then allowed to undergo the reaction at room temperature for 2 hours. After the reaction, the plate was washed 4 times using the plate washer and then the reaction with a secondary antibody was carried out. An HRP-labeled anti-rabbit IgG antibody was used as the secondary antibody, diluted 8,000 times with TBS-T containing 25% Block Ace and dispensed in 60 μl/well portions, and then the reaction was carried out at room temperature for 2 hours. After completion of the reaction, the plate was washed 4 times using the plate washer and then chemiluminescence by a POD chemiluminescence reagent (Boehringer Mannheim) was measured by ML3000 Plate Reader (Dynatech Laboratories).

[2] = test system: APP(Thr668) phosphorylation; experiment: APP(Thr668) phosphorylation by western blotting in APP695 adenovirus-infected hippocampus primary culture nerve cells; format: cell-based, rat; conditions: for APP phosphorylation suppressing action / concentration at which APP phosphorylation suppressing action was found: rat hippocampus primary culture nerve cells, human APP695 adenovirus, 1 day of treatment; for expressed amount of total APP detected with anti-APP antibody 22C11: same cells and treatment, Alsterpaullone 10 μM, Roscovitine 50 μM
Protocol: The APP gene-containing recombinant adenovirus vector was converted into linear strand by PacI treatment and introduced into HEK293 cells by the Lipofectamine method (LIFE TECHNOLOGIES), and 3 to 5 days thereafter when cells were pealed off from the plate, all of the cells were recovered. The recombinant adenovirus was obtained from the supernatant by repeating freezing-thawing step of the cells. The thus obtained recombinant adenovirus was prepared in a large amount by repeating infection of HEK293 cells and then concentrated and purified by the CsCl method and used in the test.
The thus obtained PVDF membrane was soaked in Block Ace (Daiichi Pure Chemicals) at 4° C. overnight to carry out blocking. […] The anti-serum obtained by the immunization was used by subjecting to adsorption treatment using an immunogen peptide before introduction of phosphate group and then purifying by affinity chromatography using the phosphate group-introduced antigen peptide. Also, an anti-APP monoclonal antibody 22C11 (Roche Molecular Biochemicals) was used in the determination of total APP amount (combined APP amount of phosphorylated state of APP and non-phosphorylated state of APP). […] After completion of the reaction, washing with PBS-T at room temperature for 10 minutes was repeated four times and then this was subjected to the reaction with a secondary antibody. As the secondary antibody, 20,000 times diluted HRP-labeled anti-rabbit and anti-mouse IgG antibodies (Amersham Pharmacia Biotech) were used.

[3] = target: T1, Cdk5 and p25 (Homo sapiens, UniProt Q00535); experiment: Cdk5 kinase inhibitory activity, SPA method with biotinylated histone and 33P-ATP; format: biochemical; conditions: recombinant human Cdk5/p25 1:1, SPA method
T1 construct: Complete length of the human Cdk5 gene was amplified from total RNA; made in house; host or cells: Sf9 insect cells (baculovirus)
T1 sequence (Q00535 2-292): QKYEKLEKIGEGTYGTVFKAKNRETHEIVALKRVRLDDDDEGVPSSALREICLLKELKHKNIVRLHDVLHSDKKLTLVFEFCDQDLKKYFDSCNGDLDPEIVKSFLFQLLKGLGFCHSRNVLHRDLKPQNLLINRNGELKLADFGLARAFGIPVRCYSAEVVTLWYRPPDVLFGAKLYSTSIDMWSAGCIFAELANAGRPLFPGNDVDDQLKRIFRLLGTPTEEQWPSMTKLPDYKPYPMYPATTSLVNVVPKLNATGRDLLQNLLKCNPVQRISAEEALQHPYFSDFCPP
T1 sequence (Q15078 99-307 partner limits assumed): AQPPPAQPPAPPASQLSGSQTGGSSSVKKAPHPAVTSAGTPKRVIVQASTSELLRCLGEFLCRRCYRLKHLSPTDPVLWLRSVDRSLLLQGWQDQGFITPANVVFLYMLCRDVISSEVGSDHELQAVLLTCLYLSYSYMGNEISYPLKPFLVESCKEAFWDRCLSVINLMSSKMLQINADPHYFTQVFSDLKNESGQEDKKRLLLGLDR
Protocol: The total RNA was obtained by adding 1 ml of ISOGEN reagent (Nippon Gene) to 1×10^6 cells, mixing the resulting lysate with ⅕ volume of chloroform, centrifuging the mixture at 15,000 rpm for 10 minutes, mixing the resulting supernatant with ½ volume of 2-propanol and further centrifuging the mixture at 15,000 rpm for 20 minutes. The thus obtained RNA was dissolved in water and, after measurement of its concentration, subjected to PCR reaction (Titans one tube RT-PCR kit (Boehringer Mannheim)). […] Each of the genes was introduced into a Bacmid preparation vector pFASTBac-Hta (Gibco BRL) which had been designed such that His-tag is added to N-terminus, making use of the HindIII and BamHI sites designed in the primers. Each of the genes introduced into pFASTBac was introduced into DH10Bac to carry out recombination in E. coli, thereby obtaining respective recombinant Bacmids. The thus obtained Bacmid was introduced into Sf9 cells using cellfectin reagent (Gibco BRL) to obtain baculovirus. […] Purification of the recombinant proteins was carried out making use of the 6× His tag added to the N-terminus.
After though washing with the buffer A, this was washed with a buffer B (20 mM Tris-HCl, 1 M KCl, 10 mM 2-ME, 10% glycerol). Finally, fractions eluted with a buffer C (20 mM Tris-HCl, 100 mM KCl, 100 mM imidazole, 10 mM 2-ME, 10% glycerol) were recovered, dialyzed against a sample solution (50 mM HEPES-KOH, 10 mM MgCl2, 2.5 mM EGTA, 0.1 mM PMSF) and used as a purified preparation.
A 1:1 mixture of the purified Cdk5 protein and purified p25 obtained above was used as the enzyme source at the time of kinase activity measurement. Histone HI (Sigma) was biotinylated and used as the substrate. Biotinylated histone was prepared by allowing histone to react with 10 equivalents of biotin (Ez-link Sulfo-NHS-LC-Biotin, Pierce) as molar ratio in the presence of 50 mM sodium bicarbonate at room temperature for 6 hours. Free biotin was removed by carrying out dialysis using TBS, and the resulting solution was used as the stock solution. Measurement of kinase activity was carried out in accordance with the SPA method (Amersham). […] This was allowed to stand at room temperature for 15 minutes and centrifuged (1,700 rpm, 2 min), and then amount of the isotope incorporated in the substrate was measured by Topcount […].

[4] = test system: Aβ1-42 production; experiment: Aβ1-42 production, sandwich ELISA of culture supernatant of APP695 adenovirus-infected hippocampus primary culture nerve cells; format: cell-based, rat; conditions: culture supernatant after 1 day of treatment, control DMSO (FIG. 4)
[5] = culture supernatant after 1 day of treatment, control DMSO (FIG. 3, FIG. 5)

| Compound | Aβ1-40 production [1, 5] | APP phosphorylation suppressing action [2] | Cdk5 inhibitory activity [3] | concentration at which APP phosphorylation suppressing action was found [2] | expressed amount of total APP detected with anti-APP antibody 22C11 [2] | Aβ1-42 production [4] | Aβ1-40 production ([1]; cells on 7th day co-infected with APP695 adenovirus and Cdk5 D144N adenovirus, supernatant 2 days later, control GFP adenovirus) |
| --- | --- | --- | --- | --- | --- | --- | --- |
| CCn1cnc2c(Nc3cccc(OC)c3)nc(N[C@@H]3CCCC[C@@H]3N)nc21 [A] | confirmed | found | verified the Cdk5 inhibitory activity |  |  |  |  |
| O=C1Cc2c([nH]c3ccc([N+](=O)[O-])cc23)-c2ccccc2N1 [Alsterpaullone, reference compound] | suppressed |  | verified the Cdk5 inhibitory activity | 10 µM | no changes | suppressed |  |
| CCn1cnc2c(Nc3cccc(OC)c3)nc(NC3CCC(N)CC3)nc21 (stereo not drawn) [B] | confirmed | found | verified the Cdk5 inhibitory activity |  |  |  |  |
| CCn1cnc2c(Nc3cccc(OC)c3)nc(N[C@H]3CC[C@H](O)CC3)nc21 [C] | confirmed | found | verified the Cdk5 inhibitory activity |  |  |  |  |
| N[C@H]1CC[C@H](Nc2nc(Nc3cccc(Cl)c3)c3ncn(C4CCCC4)c3n2)CC1 [D] | confirmed | found | verified the Cdk5 inhibitory activity |  |  |  |  |
| CC[C@H](CO)Nc1nc(NCc2ccccc2)c2ncn(C(C)C)c2n1 [Roscovitine, reference compound] | confirmed |  |  | 50 µM | no changes |  |  |
| Cdk5 D144N: dominant negative mutant of Cdk5 (144th aspartic acid converted into asparagine), expressed from adenovirus vector |  |  |  |  |  |  | suppressed |
